Active and inactive are the calls of the source. The rule behind the calls is not given here.
Assays:
[1] = target: T1, Tyrosine-protein kinase BTK (Homo sapiens, UniProt Q06187); experiment: Inhibition of BTK (unknown origin) using poly(Glu, Tyr) 4:1 as substrate incubated in presence of [gamma33P]ATP by image analyser
[2] = target: T1, Tyrosine-protein kinase BTK; experiment: Inhibition of BTK in human Ramos cells assessed as reduction in anti-human IgM F(ab)2-induced ERK phosphorylation preincubated for 10 mins followed by stimulated with antihuman IgM F(ab)2 incubated for 60 mins by Western blot analysis; format: cell-based; settings: time 70.0 min
[3] = target: T1, Tyrosine-protein kinase BTK; experiment: Inhibition of BTK in human Ramos cells assessed as reduction in anti-human IgM F(ab)2-induced BCR mediated PLCgamma2 phosphorylation preincubated for 10 mins followed by stimulated with antihuman IgM F(ab)2 incubated for 60 mins by Western blot analysis; format: cell-based; settings: time 70.0 min
[4] = target: T1, Tyrosine-protein kinase BTK; experiment: Inhibition of BTK in human Ramos cells assessed as reduction in anti-human IgM F(ab)2-induced BTK phosphorylation at Tyr223 residue preincubated for 10 mins followed by stimulated with antihuman IgM F(ab)2 incubated for 60 mins by Western blot analysis; format: cell-based; settings: time 1.0 hrs
[5] = target: T1, Tyrosine-protein kinase BTK; experiment: Inhibition of BTK in human Ramos cells assessed as reduction in anti-human IgM F(ab)2-induced BTK phosphorylation at Tyr551 residue preincubated for 10 mins followed by stimulated with antihuman IgM F(ab)2 incubated for 60 mins by Western blot analysis; format: cell-based; settings: time 70.0 min

T1 sequence (Q06187 whole entry): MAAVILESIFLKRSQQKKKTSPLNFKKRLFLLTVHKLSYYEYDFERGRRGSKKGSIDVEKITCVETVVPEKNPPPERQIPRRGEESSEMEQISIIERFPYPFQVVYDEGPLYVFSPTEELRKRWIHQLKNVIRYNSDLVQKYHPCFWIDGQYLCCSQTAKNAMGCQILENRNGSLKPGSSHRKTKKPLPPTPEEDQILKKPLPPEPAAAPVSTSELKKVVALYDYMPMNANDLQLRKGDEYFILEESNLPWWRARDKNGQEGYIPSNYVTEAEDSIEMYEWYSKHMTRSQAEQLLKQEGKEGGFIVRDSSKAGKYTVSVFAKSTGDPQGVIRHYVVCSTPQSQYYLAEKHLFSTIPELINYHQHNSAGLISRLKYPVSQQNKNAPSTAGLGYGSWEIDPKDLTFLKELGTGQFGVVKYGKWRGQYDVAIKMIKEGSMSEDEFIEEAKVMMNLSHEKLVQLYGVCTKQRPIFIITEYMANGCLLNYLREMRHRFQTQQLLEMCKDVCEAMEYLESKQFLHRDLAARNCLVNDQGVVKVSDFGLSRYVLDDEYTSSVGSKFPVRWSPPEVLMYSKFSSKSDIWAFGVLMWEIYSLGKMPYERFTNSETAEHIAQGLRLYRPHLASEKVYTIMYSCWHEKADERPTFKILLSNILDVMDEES

| Structure (SMILES) | IC50 [1] | inhibition [2] | inhibition [3] | inhibition [4] | inhibition [5] |
| --- | --- | --- | --- | --- | --- |
| c1nc2c(Nc3ccc(N4CCOCC4)cc3)nc(-c3ccc4cn[nH]c4c3)nc2[nH]1 | 73 nM |  |  |  |  |
| c1cc2nc(-c3ccc4cn[nH]c4c3)nc(Nc3ccc(N4CCOCC4)cc3)c2[nH]1 | > 20000 nM |  |  |  |  |
| c1nc2c(Nc3ccc(N4CCOCC4)cc3)nc(-c3ccc4cn[nH]c4c3)cc2[nH]1 | 369 nM | inactive |  |  |  |
| c1nc2c(Nc3ccc(N4CCOCC4)cc3)cc(-c3ccc4cn[nH]c4c3)nc2[nH]1 | 1450 nM |  |  |  |  |
| c1cn2cc(-c3ccc4cn[nH]c4c3)nc(Nc3ccc(N4CCOCC4)cc3)c2n1 [ENTOSPLETINIB] | 801 nM | Active | Active | Active | Active |
| c1cc(N2CCOCC2)ccc1Nc1nc(-c2ccc3cn[nH]c3c2)nc2[nH]ncc12 | 167 nM |  |  |  |  |

From ChEMBL document CHEMBL4765406 (Eur J Med Chem, 2020)
